For assay [1], the system named is Plasmodium falciparum. Put plainly: Antimicrobial activity against chloroquine-resistant Plasmodium falciparum W2. It is filed as functional, organism-based.
Assay [2] in a line: Inhibition of recombinant Plasmodium falciparum falcipain-2.

The values below come from ChEMBL document CHEMBL1156312, “Comparison of the antiplasmodial and falcipain-2 inhibitory activity of beta-amino alcohol thiolactone-chalcone and isatin-chalcone hybrids” (Bioorg Med Chem Lett, 2010).

On to `COc1ccc(/C=C/C(=O)c2ccc(OCc3cn(CC(O)COC4=C(C)C(=O)SC4C)nn3)cc2)c(OC)c1OC` (stereo not given), for which the figures for the IC50 in assay [1] and in assay [2] were greater than 100 µM and 0.81 µM, respectively. The corresponding values for `COc1ccc(C(=O)/C=C/c2ccccc2OCc2cn(CC(O)CN3C(=O)C(=O)c4cc(Cl)ccc43)nn2)cc1` (stereo not given) are 25.4 µM and greater than 20 µM. The corresponding values for `COc1ccc(C(=O)/C=C/c2ccccc2OCc2cn(CC(O)CN3C(=O)C(=O)c4cc(Cl)ccc43)nn2)c(OC)c1` (stereo not given) are 15.6 µM and greater than 20 µM. The corresponding values for `COc1ccc(C(=O)/C=C/c2ccccc2OCc2cn(CC(O)CN3C(=O)C(=O)c4cc(Cl)ccc43)nn2)c(OC)c1OC` (stereo not given) are 90.5 µM and 6.1 µM. For the compound `COc1ccc(C(=O)/C=C/c2cccc(OCc3cn(CC(O)CN4C(=O)C(=O)c5cc(Cl)ccc54)nn3)c2)cc1` (stereo not given), the IC50 came to 10.3 µM in assay [1] and 5.75 µM in assay [2]. For `COc1ccc(C(=O)/C=C/c2cccc(OCc3cn(CC(O)CN4C(=O)C(=O)c5cc(Cl)ccc54)nn3)c2)c(OC)c1` (stereo not given), the IC50 in assay [1] stood at 6.8 µM; in assay [2], 3.17 µM. For `COc1ccc(C(=O)/C=C/c2cccc(OCc3cn(CC(O)CN4C(=O)C(=O)c5cc(Cl)ccc54)nn3)c2)c(OC)c1OC` (stereo not given), in that order: 11.5 µM and 2.18 µM. Turning to `COc1ccc(C(=O)/C=C/c2ccc(OCc3cn(CC(O)CN4C(=O)C(=O)c5cc(Cl)ccc54)nn3)cc2)cc1` (stereo not given), the IC50 in assay [1] was found to be 10.8 µM; in assay [2], 10.6 µM.

Turning to `COc1ccc(C(=O)/C=C/c2ccc(OCc3cn(CC(O)CN4C(=O)C(=O)c5cc(Cl)ccc54)nn3)cc2)c(OC)c1` (stereo not given), the IC50 in assay [2] stood at 9.73 µM. Consider `COc1ccc(C(=O)/C=C/c2ccc(OCc3cn(CC(O)CN4C(=O)C(=O)c5cc(Cl)ccc54)nn3)cc2)c(OC)c1OC` (stereo not given), for which the IC50 was found to be 16.6 µM in assay [1] and 11 µM in assay [2]. The corresponding values for `COc1ccc(/C=C/C(=O)c2ccccc2OCc2cn(CC(O)CN3C(=O)C(=O)c4cc(Cl)ccc43)nn2)cc1` (stereo not given) are 16 µM and 7.79 µM.

With `COc1ccc(/C=C/C(=O)c2ccccc2OCc2cn(CC(O)CN3C(=O)C(=O)c4cc(Cl)ccc43)nn2)c(OC)c1` (stereo not given), the IC50 in assay [1] is 15 µM; in assay [2], 2.09 µM.

In the case of `COc1ccc(/C=C/C(=O)c2ccccc2OCc2cn(CC(O)CN3C(=O)C(=O)c4cc(Cl)ccc43)nn2)c(OC)c1OC` (stereo not given), the IC50 in assay [1] worked out at 15.3 µM; in assay [2], 6.21 µM. The corresponding values for `COc1ccc(/C=C/C(=O)c2cccc(OCc3cn(CC(O)CN4C(=O)C(=O)c5cc(Cl)ccc54)nn3)c2)cc1` (stereo not given) are 9.91 µM and 3.57 µM.

For the compound `COc1ccc(/C=C/C(=O)c2cccc(OCc3cn(CC(O)CN4C(=O)C(=O)c5cc(Cl)ccc54)nn3)c2)c(OC)c1` (stereo not given), the IC50 in assay [1] worked out at 10.6 µM; in assay [2], 2.95 µM. As to `COc1ccc(/C=C/C(=O)c2cccc(OCc3cn(CC(O)CN4C(=O)C(=O)c5cc(Cl)ccc54)nn3)c2)c(OC)c1OC` (stereo not given), the values for the IC50 in assay [1] and in assay [2] were 16.7 µM and 2.57 µM, respectively. The corresponding values for `COc1ccc(/C=C/C(=O)c2ccc(OCc3cn(CC(O)CN4C(=O)C(=O)c5cc(Cl)ccc54)nn3)cc2)cc1` (stereo not given) are 15.9 µM and 14.9 µM. The corresponding values for `COc1ccc(/C=C/C(=O)c2ccc(OCc3cn(CC(O)CN4C(=O)C(=O)c5cc(Cl)ccc54)nn3)cc2)c(OC)c1` (stereo not given) are 18.3 µM and 14.5 µM. For `COc1ccc(/C=C/C(=O)c2ccc(OCc3cn(CC(O)CN4C(=O)C(=O)c5cc(Cl)ccc54)nn3)cc2)c(OC)c1OC` (stereo not given), in that order: 25.1 µM and greater than 20 µM.

As for `COc1ccc(/C=C/C(=O)c2ccccc2OCc2cn(CC(O)COC3=C(C)C(=O)SC3C)nn2)cc1` (stereo not given), the IC50 was greater than 100 µM in assay [1] and 2.64 µM in assay [2]. As for `COc1ccc(C(=O)/C=C/c2ccccc2OCc2cn(CC(O)COC3=C(C)C(=O)SC3C)nn2)cc1` (stereo not given), the IC50 was greater than 100 µM in assay [1] and 2.31 µM in assay [2]. For `COc1ccc(C(=O)/C=C/c2cccc(OCc3cn(CC(O)COC4=C(C)C(=O)SC4C)nn3)c2)cc1` (stereo not given), in that order: greater than 100 µM and 2.43 µM.

For `COc1ccc(C(=O)/C=C/c2cccc(OCc3cn(CC(O)COC4=C(C)C(=O)SC4C)nn3)c2)c(OC)c1` (stereo not given), the IC50 was greater than 100 µM in assay [1] and 1.64 µM in assay [2].

As for `COc1ccc(C(=O)/C=C/c2ccc(OCc3cn(CC(O)COC4=C(C)C(=O)SC4C)nn3)cc2)cc1` (stereo not given), the IC50 in assay [1] was greater than 100 µM; in assay [2] it was 3.12 µM. Consider `COc1ccc(C(=O)/C=C/c2ccccc2OCc2cn(CC(O)COC3=C(C)C(=O)SC3C)nn2)c(OC)c1` (stereo not given), for which the results for the IC50 in assay [1] and in assay [2] were greater than 100 µM and 2.08 µM, respectively.

Regarding `COc1ccc(C(=O)/C=C/c2ccc(OCc3cn(CC(O)COC4=C(C)C(=O)SC4C)nn3)cc2)c(OC)c1` (stereo not given), the IC50 is greater than 100 µM in assay [1] and 1.54 µM in assay [2]. As to `COc1ccc(C(=O)/C=C/c2ccccc2OCc2cn(CC(O)COC3=C(C)C(=O)SC3C)nn2)c(OC)c1OC` (stereo not given), the IC50 was greater than 100 µM in assay [1] and 1.14 µM in assay [2]. As for `COc1ccc(C(=O)/C=C/c2cccc(OCc3cn(CC(O)COC4=C(C)C(=O)SC4C)nn3)c2)c(OC)c1OC` (stereo not given), the IC50 is greater than 100 µM in assay [1] and 2 µM in assay [2]. On to `CC1=C(OCC(O)CN=[N+]=[N-])C(C)SC1=O` (stereo not given), for which the IC50 in assay [1] was greater than 100 µM; in assay [2] it was greater than 20 µM. For `COC1(OC)C(=O)N(CC(O)CN=[N+]=[N-])c2ccc(Cl)cc21` (stereo not given), in that order: greater than 100 µM and greater than 20 µM. For `COc1ccc(/C=C/C(=O)c2ccccc2OCc2cn(CC(O)COC3=C(C)C(=O)SC3C)nn2)c(OC)c1` (stereo not given), in that order: greater than 100 µM and 2.14 µM. For `COc1ccc(/C=C/C(=O)c2cccc(OCc3cn(CC(O)COC4=C(C)C(=O)SC4C)nn3)c2)cc1` (stereo not given), in that order: greater than 100 µM and 3.69 µM.

On to `COc1ccc(/C=C/C(=O)c2cccc(OCc3cn(CC(O)COC4=C(C)C(=O)SC4C)nn3)c2)c(OC)c1` (stereo not given), for which the IC50 was greater than 100 µM in assay [1] and 3.51 µM in assay [2]. For the compound `COc1ccc(/C=C/C(=O)c2ccc(OCc3cn(CC(O)COC4=C(C)C(=O)SC4C)nn3)cc2)cc1` (stereo not given), the IC50 was greater than 100 µM in assay [1] and 6.08 µM in assay [2].

As for `COc1ccc(C(=O)/C=C/c2ccc(OCc3cn(CC(O)COC4=C(C)C(=O)SC4C)nn3)cc2)c(OC)c1OC` (stereo not given), the IC50 is greater than 100 µM in assay [1] and 5.04 µM in assay [2].

`COc1ccc(/C=C/C(=O)c2ccc(OCc3cn(CC(O)COC4=C(C)C(=O)SC4C)nn3)cc2)c(OC)c1` (stereo not given): the IC50 turned out to be 28.5 µM in assay [1] and 3.1 µM in assay [2]. Turning to `COc1ccc(/C=C/C(=O)c2cccc(OCc3cn(CC(O)COC4=C(C)C(=O)SC4C)nn3)c2)c(OC)c1OC` (stereo not given), the IC50 in assay [1] is greater than 100 µM; in assay [2], 0.68 µM. `CCN(CC)CCCC(C)Nc1ccnc2cc(Cl)ccc12` (stereo not given) [CHLOROQUINE]: the IC50 in assay [2] came out at 0.0694 µM.

For `O=C1Nc2ccccc2C1=O` [ISATIN], the IC50 in assay [1] was greater than 100 µM; in assay [2], greater than 20 µM.

In the case of `C=C/C(C)=C/[C@@]1(C)SC(=O)C(C)=C1O` [THIOLACTOMYCIN], the values for the IC50 in assay [1] and in assay [2] were greater than 100 µM and greater than 20 µM, respectively. The corresponding values for `CC1=C(O)SC(C)C1=O` (stereo not given) [THIOLACTONE] are greater than 100 µM and greater than 20 µM.
